The source of these data is patent US11739098B2 (BRISTOL-MYERS SQUIBB COMPANY, priority 2017, dated 2023).

Some results are limits rather than exact numbers.

Common to all, as to type: cell-based
The target of one test is T1, human TLR7 (Homo sapiens, UniProt Q9NYK1).
T1 construct: host or cells: HEK-Blue cells (HEK293-derived reporter line)
T1 sequence (Q9NYK1 27-1049): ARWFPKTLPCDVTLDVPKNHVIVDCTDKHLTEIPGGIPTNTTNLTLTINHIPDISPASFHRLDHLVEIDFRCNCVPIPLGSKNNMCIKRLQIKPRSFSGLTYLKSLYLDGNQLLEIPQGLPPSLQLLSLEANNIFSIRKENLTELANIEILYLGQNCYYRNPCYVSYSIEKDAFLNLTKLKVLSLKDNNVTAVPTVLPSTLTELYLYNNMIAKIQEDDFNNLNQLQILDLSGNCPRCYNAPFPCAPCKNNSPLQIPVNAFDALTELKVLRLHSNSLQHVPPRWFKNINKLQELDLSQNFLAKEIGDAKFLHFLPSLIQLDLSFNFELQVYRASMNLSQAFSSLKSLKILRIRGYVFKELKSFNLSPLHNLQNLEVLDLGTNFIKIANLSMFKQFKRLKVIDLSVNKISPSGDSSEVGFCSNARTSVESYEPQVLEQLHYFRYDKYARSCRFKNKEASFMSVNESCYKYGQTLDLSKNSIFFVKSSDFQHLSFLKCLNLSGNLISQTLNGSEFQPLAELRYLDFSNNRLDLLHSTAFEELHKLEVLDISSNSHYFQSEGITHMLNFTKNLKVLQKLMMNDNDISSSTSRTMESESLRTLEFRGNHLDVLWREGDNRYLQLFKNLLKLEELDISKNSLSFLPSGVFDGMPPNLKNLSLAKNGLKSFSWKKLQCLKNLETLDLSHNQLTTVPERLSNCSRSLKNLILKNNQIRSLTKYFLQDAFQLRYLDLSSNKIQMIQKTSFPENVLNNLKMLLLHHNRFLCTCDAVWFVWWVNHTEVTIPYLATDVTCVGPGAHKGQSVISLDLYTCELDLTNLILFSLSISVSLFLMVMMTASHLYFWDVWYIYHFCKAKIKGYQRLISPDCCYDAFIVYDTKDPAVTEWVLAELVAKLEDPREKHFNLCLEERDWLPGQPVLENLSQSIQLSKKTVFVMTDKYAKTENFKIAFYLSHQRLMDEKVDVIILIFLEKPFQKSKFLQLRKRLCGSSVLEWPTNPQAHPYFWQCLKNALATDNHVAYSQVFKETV
The test can be described thus: TLR7 inhibition reporter assay (HEK-Blue cells, SEAP reporter, gardiquimod stimulation). Conditions: HEK-Blue cells overexpressing human TLR7, SEAP reporter, gardiquimod 7.5 μM. The method, boiled down:
(§1)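 Percent inhibition of agonist-induced SEAP secretion in HEK-Blue cells after 22 h at 37 °C. Stimuli: 7.5 μM gardiquimod, 15.9 μM R848, 5 nM ODN2006 for TLR7, TLR8 and TLR9, added after 30 min compound exposure over a 0.05 nM–50 μM range.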
A general note: A reporter such as luciferase makes a cellular process visible.

The next test concerns the target T2, human TLR8 (Homo sapiens, UniProt Q9NR97).
T2 construct: host or cells: HEK-Blue cells (HEK293-derived reporter line)
T2 sequence (Q9NR97 27-1041): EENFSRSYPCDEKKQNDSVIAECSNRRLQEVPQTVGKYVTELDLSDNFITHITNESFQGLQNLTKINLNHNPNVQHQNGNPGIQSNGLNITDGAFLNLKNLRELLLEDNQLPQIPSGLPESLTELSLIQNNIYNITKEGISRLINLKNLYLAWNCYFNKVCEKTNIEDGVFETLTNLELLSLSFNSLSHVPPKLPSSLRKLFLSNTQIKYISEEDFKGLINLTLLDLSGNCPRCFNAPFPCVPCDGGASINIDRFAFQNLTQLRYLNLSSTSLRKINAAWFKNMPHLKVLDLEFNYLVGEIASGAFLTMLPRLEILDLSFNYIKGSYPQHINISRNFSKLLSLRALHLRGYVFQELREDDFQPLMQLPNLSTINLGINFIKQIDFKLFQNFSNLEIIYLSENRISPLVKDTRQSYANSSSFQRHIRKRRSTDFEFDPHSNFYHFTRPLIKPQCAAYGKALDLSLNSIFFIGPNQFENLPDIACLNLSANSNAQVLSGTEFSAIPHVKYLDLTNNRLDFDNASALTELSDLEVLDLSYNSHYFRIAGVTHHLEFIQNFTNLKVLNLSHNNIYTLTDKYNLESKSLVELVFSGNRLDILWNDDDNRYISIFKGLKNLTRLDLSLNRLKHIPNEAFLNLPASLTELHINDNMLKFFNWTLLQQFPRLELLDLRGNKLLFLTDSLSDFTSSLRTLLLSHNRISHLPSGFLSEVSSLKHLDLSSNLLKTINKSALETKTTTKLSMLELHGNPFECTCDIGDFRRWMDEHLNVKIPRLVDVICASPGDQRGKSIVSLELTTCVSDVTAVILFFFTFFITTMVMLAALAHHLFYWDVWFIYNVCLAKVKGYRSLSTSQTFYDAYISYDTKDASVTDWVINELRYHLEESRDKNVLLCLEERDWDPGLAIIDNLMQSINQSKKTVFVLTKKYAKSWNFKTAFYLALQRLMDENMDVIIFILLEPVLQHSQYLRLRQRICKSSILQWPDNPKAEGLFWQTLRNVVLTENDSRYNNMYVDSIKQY
Description: TLR8 inhibition reporter assay (HEK-Blue cells, SEAP reporter, R848 stimulation). The following applies: HEK-Blue cells overexpressing human TLR8, SEAP reporter, R848 15.9 μM. A digest of the protocol:
as §1

In the next test the target is T3, human TLR9 (Homo sapiens, UniProt Q9NR96).
T3 construct: host or cells: HEK-Blue cells (HEK293-derived reporter line)
T3 sequence (Q9NR96 26-1032): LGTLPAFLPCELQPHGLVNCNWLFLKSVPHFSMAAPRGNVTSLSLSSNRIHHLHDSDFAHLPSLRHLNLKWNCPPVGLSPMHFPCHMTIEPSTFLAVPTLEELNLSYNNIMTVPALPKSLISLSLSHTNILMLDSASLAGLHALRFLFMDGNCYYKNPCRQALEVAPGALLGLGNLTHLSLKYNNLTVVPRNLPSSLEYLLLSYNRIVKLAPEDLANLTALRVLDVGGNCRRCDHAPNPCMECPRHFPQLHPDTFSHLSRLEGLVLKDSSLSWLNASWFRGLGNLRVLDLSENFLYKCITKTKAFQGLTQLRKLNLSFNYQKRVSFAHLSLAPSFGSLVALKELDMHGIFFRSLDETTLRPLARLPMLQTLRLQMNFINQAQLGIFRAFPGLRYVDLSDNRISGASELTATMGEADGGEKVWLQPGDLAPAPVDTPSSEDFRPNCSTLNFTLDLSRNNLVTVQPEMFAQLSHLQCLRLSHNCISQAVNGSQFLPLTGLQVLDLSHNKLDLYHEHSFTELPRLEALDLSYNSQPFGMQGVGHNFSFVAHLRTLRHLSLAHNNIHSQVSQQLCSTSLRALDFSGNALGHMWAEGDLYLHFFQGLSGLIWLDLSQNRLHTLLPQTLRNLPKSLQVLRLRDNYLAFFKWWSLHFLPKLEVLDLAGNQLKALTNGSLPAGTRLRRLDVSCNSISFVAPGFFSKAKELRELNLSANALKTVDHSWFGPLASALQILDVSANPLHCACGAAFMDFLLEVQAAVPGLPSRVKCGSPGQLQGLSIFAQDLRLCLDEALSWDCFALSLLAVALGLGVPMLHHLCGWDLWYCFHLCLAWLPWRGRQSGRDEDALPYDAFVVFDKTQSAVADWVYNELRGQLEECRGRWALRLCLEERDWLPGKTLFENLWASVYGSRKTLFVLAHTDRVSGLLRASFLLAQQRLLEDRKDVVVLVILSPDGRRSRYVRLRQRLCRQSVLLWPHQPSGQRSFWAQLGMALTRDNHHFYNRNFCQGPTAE
The test can be described thus: TLR9 inhibition reporter assay (HEK-Blue cells, SEAP reporter, ODN2006 stimulation). Conditions: HEK-Blue cells overexpressing human TLR9, SEAP reporter, ODN2006 5 nM. The method, boiled down: as §1

`CC(C)c1c(-c2nc3ccnn3cc2F)[nH]c2ccc(C3CCNCC3)cc12` [Example 147, 6-fluoro-5-(3-isopropyl-5-(piperidin-4-yl)-1H-indol-2-yl)pyrazolo[1,5-a]pyrimidine]: the IC50 against human TLR7 was under 100 nM; against human TLR8, under 100 nM; at human TLR9, 1000 to 50000 nM.

Regarding `Cc1cc(-c2[nH]c3ccc(C4CCN(CC(=O)N(C)C)CC4)cc3c2C(C)C)cc2ocnc12` [Example 291, 2-(4-(3-isopropyl-2-(4-methylbenzo[d]oxazol-6-yl)-1H-indol-5-yl)piperidin-1-yl)-N,N-dimethylacetamide], the half-maximal inhibitory concentration (IC50) was under 100 nM at human TLR7, under 100 nM against human TLR8 and 1000 to 50000 nM on human TLR9.

For the compound `CC(C)c1c(-c2cnc3nn(C)cc3c2)[nH]c2ccc(C3CCN(CC(C)(C)O)CC3)cc12` [Example 765, 1-(4-(3-isopropyl-2-(2-methyl-2H-pyrazolo[3,4-b]pyridin-5-yl)-1H-indol-5-yl)piperidin-1-yl)-2-methylpropan-2-ol], the IC50 on human TLR7 was 100 to 1000 nM; on human TLR8 it was 1000 to 50000 nM; against human TLR9 it was 1000 to 50000 nM.

With `Cc1cc(-c2[nH]c3ccc(C4CCN(CC(=O)N(C)C)CC4)cc3c2C(C)C)cc2ccnn12` [Example 442, 2-(4-(3-isopropyl-2-(7-methylpyrazolo[1,5-a]pyridin-5-yl)-1H-indol-5-yl)piperidin-1-yl)-N,N-dimethylacetamide], the figures for the IC50 against human TLR7, against human TLR8 and at human TLR9 were under 100 nM, under 100 nM and 1000 to 50000 nM, respectively.

Turning to `CNCCN1CCC(c2ccc3[nH]c(-c4ccc5ncnn5n4)c(C)c3c2)CC1` [Example 651, 2-(4-(2-([1,2,4]triazolo[1,5-b]pyridazin-6-yl)-3-methyl-1H-indol-5-yl)piperidin-1-yl)-N-methylethan-1-amine], the IC50 on human TLR7, against human TLR8 and against human TLR9 was under 100 nM in each case.

As to `CCc1c(-c2ccnc3[nH]cc(CC)c23)[nH]c2ccc(C3CCNCC3)cc12` [Example 220, 3-ethyl-4-(3-ethyl-5-(piperidin-4-yl)-1H-indol-2-yl)-1H-pyrrolo[2,3-b]pyridine], the half-maximal inhibitory concentration (IC50) lay within 100 to 1000 nM on human TLR7, 100 to 1000 nM at human TLR8 and 1000 to 50000 nM against human TLR9.

With `CC(C)c1c(-c2cnc3ccnn3c2)[nH]c2ccc(C3CCN(C(=O)[C@@H]4NCC[C@H]4O)CC3)cc12` [Example 513, ((2R,3R)-3-hydroxypyrrolidin-2-yl)(4-(3-isopropyl-2-(pyrazolo[1,5-a]pyrimidin-6-yl)-1H-indol-5-yl)piperidin-1-yl)methanone], the IC50 on human TLR7 is 1000 to 50000 nM; against human TLR8, over 3130 nM; against human TLR9, 1000 to 50000 nM.

Take `CC(C)c1c(-c2cnc3nn(C)cc3c2)[nH]c2ccc(C3CCN(C(=O)CN(C)C)CC3)cc12` [Example 505, 2-(dimethylamino)-1-(4-(3-isopropyl-2-(2-methyl-2H-pyrazolo[3,4-b]pyridin-5-yl)-1H-indol-5-yl)piperidin-1-yl)ethan-1-one]: the IC50 at human TLR7 is 100 to 1000 nM; at human TLR8 it was over 3130 nM; at human TLR9, 1000 to 50000 nM.

For `COc1cc(-c2[nH]c3ccc(C4CCN(CC#N)CC4)cc3c2C(C)C)cn2ccnc12` [Example 950, 2-(4-(3-isopropyl-2-(8-methoxyimidazo[1,2-a]pyridin-6-yl)-1H-indol-5-yl)piperidin-1-yl)acetonitrile], the IC50 on human TLR7 is under 100 nM; on human TLR8 it was under 100 nM; at human TLR9, 100 to 1000 nM.

With `CC(C)c1c(-c2cc(CO)c3nccn3c2)[nH]c2ccc(C3CCN(C(=O)CN(C)C)CC3)cc12` [Example 492, 2-(dimethylamino)-1-(4-(2-(8-(hydroxymethyl)imidazo[1,2-a]pyridin-6-yl)-3-isopropyl-1H-indol-5-yl)piperidin-1-yl)ethan-1-one], the half-maximal inhibitory concentration (IC50) at human TLR7 is under 100 nM; against human TLR8, under 100 nM; on human TLR9, 100 to 1000 nM.

With `CC(C)c1c(-c2cc(CO)c3nnnn3c2)[nH]c2ccc(C3CCNCC3)cc12` [Example 71, (6-(3-isopropyl-5-(piperidin-4-yl)-1H-indol-2-yl)tetrazolo[1,5-a]pyridin-8-yl)methanol], the IC50 at human TLR7 is under 100 nM; against human TLR8, 100 to 1000 nM; against human TLR9, 1000 to 50000 nM.

For `CC(C)c1c(-c2cn(C)c3ncccc23)[nH]c2ccc(C3CCN(CC(N)=O)CC3)cc12` [Example 296, 2-(4-(3-isopropyl-2-(1-methyl-1H-pyrrolo [2,3-b]pyridin-3-yl)-1H-indol-5-yl)piperidin-1-yl)acetamide], the IC50 against human TLR7 is under 100 nM; at human TLR8, under 100 nM; against human TLR9 it was 1000 to 50000 nM.

In the case of `CC(C)c1c(-c2cccn3ncnc23)[nH]c2ccc(C3CCNCC3)cc12` [Example 196, 8-(3-isopropyl-5-(piperidin-4-yl)-1H-indol-2-yl)-[1,2,4]triazolo[1,5-a]pyridine], the IC50 at human TLR7 was under 100 nM; against human TLR8 it was under 100 nM; at human TLR9 it was 1000 to 50000 nM.

Usually IC50 stands for the concentration that inhibits the measured activity by half. Lower therefore signals greater potency in that assay.
